Laboratory results reported in the OPERA property sets (Mansouri et al. 2018).

Settings: not given
In the case of `CCCCCCCCCCCO`, the boiling point is reported as 243 °C, the log10 vapour pressure (mmHg) is reported as -2.53 and the melting point is reported as 19 °C. For the same compound, the ready biodegradability was “readily biodegradable”.
In the case of `CC1CCCC2(C)CCCCC12O` (stereo not drawn), the boiling point is reported as 270 °C.
In the case of `CC(C)(c1ccc(O)cc1)c1ccc(O)cc1`, the melting point is reported as 153 °C and the ready biodegradability is reported as “not readily biodegradable”.
For `CC(O)CC(C)(C)O` (stereo not drawn), the boiling point was 198 °C, the log10 vapour pressure (mmHg) was -1.89 and the melting point was -50 °C. The ready biodegradability was “readily biodegradable”.
With `CCOP(=S)(OCC)Oc1cnc2ccccc2n1` the log10 vapour pressure (mmHg) was -5.58 and the melting point was 31.5 °C.
In the case of `N#CNC(=N)N`, the melting point is reported as 211 °C and the ready biodegradability is reported as “not readily biodegradable”.
With `CC[C@H]1C[N@@]2CC[C@H]1C[C@H]2[C@H](O)c1ccnc2ccc(OCCC(C)C)cc12` the melting point was 152 °C.
Work on `NCCCC(N)C(=O)O` (stereo not drawn) yielded a melting point of 140 °C.
In the case of `CCCCCC(C)Br` (stereo not drawn), the boiling point is reported as 166 °C, the log10 vapour pressure (mmHg) is reported as 0.358 and the melting point is reported as 47 °C.
In the case of `CCOCC1CO1` (stereo not drawn), the boiling point is reported as 128 °C.
`CC(C)Nc1ccccc1` showed a boiling point of 203 °C and a melting point of -10 °C.
With `CCCCCCCCCO` the ready biodegradability was “readily biodegradable”.
Compound `CC1(C)CC(O)CC(C)(CN)C1` (stereo not drawn) has a boiling point of 265 °C and a melting point of 45.5 °C.
Compound `C[Si](C)(Cl)O[Si](C)(C)O[Si](C)(C)Cl` has a boiling point of 184 °C and a melting point of -53 °C.
`O=[N+]([O-])c1cc(Br)ccc1O` gave a melting point of 92 °C.
Compound `CCCC(CC)(CC)CC` has a boiling point of 166 °C.
`c1ccc([Se]c2ccccc2)cc1` showed a boiling point of 302 °C and a melting point of 2.5 °C.
In the case of `CC1OC(=O)C(C)OC1=O` (stereo not drawn), the melting point is reported as 118 °C.
For `OCCCCCCCCl`, the melting point was 11 °C.
In the case of `COc1cccc(OC)c1OC`, the boiling point is reported as 235 °C and the melting point is reported as 48.5 °C.
`CCC(c1ccccc1)c1c(O)c2ccccc2oc1=O` (stereo not drawn) gave a melting point of 180 °C.
In the case of `CCc1nc2ccccc2[nH]1`, the melting point is reported as 175 °C.
`CCCCN(CCCC)CCCC` showed a boiling point of 216 °C, a log10 vapour pressure (mmHg) of -1.03 and a melting point of -70 °C. The ready biodegradability was “not readily biodegradable”.
With `NS(=O)(=O)C(F)(F)C(F)(F)C(F)(F)C(F)(F)C(F)(F)C(F)(F)C(F)(F)C(F)(F)F` the log10 vapour pressure (mmHg) was -0.606.
`CCOC(=O)C1(c2ccccc2)CCN(C)CC1` gave a melting point of 270 °C.
In the case of `CC1=CC2CC1C1C(=O)OC(=O)C21` (stereo not drawn), the ready biodegradability is reported as “not readily biodegradable”.
`Clc1cc(Cl)c2c(c1Cl)Oc1c(Cl)cc(Cl)c(Cl)c1O2` showed a log10 vapour pressure (mmHg) of -10.3 and a melting point of 238 °C.
Compound `Oc1cc(Cl)c(Cl)c(Cl)c1Cl` has a log10 Koc (L/kg) of 4.12 and a melting point of 116 °C.
With `N=C(N)NCCC[C@H](N)C(=O)O` the ready biodegradability was “readily biodegradable”.
In the case of `O=[N+]([O-])c1cccc2c(Cl)cccc12`, the melting point is reported as 111 °C.
`Nc1cccc(Br)c1` showed a boiling point of 251 °C and a melting point of 18.5 °C.
In the case of `Clc1ccc(-c2cc(Cl)c(Cl)c(Cl)c2Cl)cc1Cl`, the log10 vapour pressure (mmHg) is reported as -5.79.
`Nc1ncnc(Nc2ccccc2)n1` gave a melting point of 236 °C.
Compound `O=C(Nc1cccc(Cl)c1)OCC#CCCl` has a log10 Koc (L/kg) of 3.06, a log10 vapour pressure (mmHg) of -6.42 and a melting point of 75 °C. For the same compound, the ready biodegradability was “not readily biodegradable”.
For `CCc1cc(C)cc(CC)c1`, the boiling point was 205 °C, the log10 vapour pressure (mmHg) was 0.0017 and the melting point was -74.1 °C.
With `COc1ccc(N)c(OC)c1` the melting point was 33.5 °C.
`FC(Cl)CCl` (stereo not drawn) gave a boiling point of 73.7 °C and a melting point of -60 °C.
`CCCc1ccc(O)cc1` gave a boiling point of 233 °C, a log10 Henry constant (atm·m³/mol) of -5.94 and a log10 vapour pressure (mmHg) of -1.43. For the same compound, the melting point was 22 °C.
For `CC(=O)[C@@]1(O)CC[C@H]2[C@@H]3C[C@H](C)C4=CC(=O)CC[C@]4(C)[C@H]3CC[C@@]21C`, the melting point was 214 °C.
`OCCCCO` gave a boiling point of 235 °C, a log10 vapour pressure (mmHg) of -1.98 and a melting point of 20.4 °C. The ready biodegradability was “readily biodegradable”.
Work on `N#Cc1ccccc1O` yielded a melting point of 98 °C.
With `CC(C)C(c1ccccc1)C(C)C` the boiling point was 221 °C and the melting point was -24.5 °C.
In the case of `CCN(CC)CCOc1ccc2nc(N(C)C)sc2c1.Cl.Cl`, the melting point is reported as 242 °C.
In the case of `C=C(C)c1ccc(Cl)cc1`, the ready biodegradability is reported as “not readily biodegradable”.
Compound `CCC(C)C(C)(COC(N)=O)COC(N)=O` (stereo not drawn) has a melting point of 77 °C.
With `CC(C)c1cc(C(C)C)c(C(C)C)cc1C(C)C` the boiling point was 259 °C, the log10 vapour pressure (mmHg) was -2.7 and the melting point was 118 °C.
Work on `CC[C@@H]1CCC[C@H]1C` yielded a boiling point of 125 °C, a log10 vapour pressure (mmHg) of 1.3 and a melting point of -106 °C.
`Cc1c(C)c(O)c(C)c(C)c1O` showed a melting point of 233 °C.
For `CC(C)[C@@H](N)C(=O)O`, the melting point was 315 °C.
Work on `C#CC(C)(C)NC(=O)c1ccc(C)cc1` yielded a log10 Koc (L/kg) of 1.76.
`C#CCl` showed a boiling point of -30 °C and a melting point of -126 °C.
Compound `N#Cc1cc([N+](=O)[O-])c(Cl)c([N+](=O)[O-])c1` has a melting point of 141 °C.
For `N#CCCCCCCCCCCC(=O)O`, the ready biodegradability was “readily biodegradable”.
`CCCCC(=O)OCc1ccco1` gave a boiling point of 228 °C.
With `CCCN(CCOc1c(Cl)cc(Cl)cc1Cl)C(=O)n1ccnc1` the log10 Koc (L/kg) was 2.7, the log10 vapour pressure (mmHg) was -5.95 and the melting point was 48 °C.
For `Oc1ccc(Br)cc1`, the log10 Koc (L/kg) was 2.41 and the ready biodegradability was “not readily biodegradable”.
In the case of `C#Cc1ccccc1`, the boiling point is reported as 143 °C, the log10 vapour pressure (mmHg) is reported as 0.314 and the melting point is reported as -44.8 °C.
Compound `ClC(Cl)(Cl)c1ccccc1` has a boiling point of 221 °C, a log10 vapour pressure (mmHg) of -0.383 and a melting point of -5 °C. The ready biodegradability was “readily biodegradable”.
`CCOc1ccccc1` gave a boiling point of 170 °C, a log10 vapour pressure (mmHg) of 0.185 and a melting point of -29.5 °C. The ready biodegradability was “readily biodegradable”.
In the case of `CC(Oc1cc(Cl)c(Cl)cc1Cl)C(=O)O` (stereo not drawn), the log10 Koc (L/kg) is reported as 1.75, the melting point is reported as 182 °C and the ready biodegradability is reported as “not readily biodegradable”.
`N=CNO` gave a melting point of 114 °C.
In the case of `CC(C)N=C=NC(C)C`, the boiling point is reported as 147 °C.
With `O=C(O)c1c(F)c(F)cc(F)c1F` the melting point was 151 °C.
In the case of `O=C(O)c1cc(O)c2ccccc2n1`, the melting point is reported as 282 °C.
Compound `CNC(=O)N(C)c1nnc(C(F)(F)F)s1` has a melting point of 136 °C.
`Cc1nc2ccc([N+](=O)[O-])cc2[nH]1` gave a melting point of 224 °C.
With `CC(C)(C)[C@@H](O)[C@H](Cc1ccc(Cl)cc1Cl)n1cncn1` the melting point was 148 °C.
Compound `C=C=CCCl` has a boiling point of 88 °C.
`CCCCCCCC/C=C\CCCCCCCCCCCCC` gave a boiling point of 378 °C and a log10 vapour pressure (mmHg) of -4.45.
For `CNC(=O)ON=C(C)C(C)SC` (stereo not drawn), the log10 vapour pressure (mmHg) was -4.1 and the melting point was 25 °C.
For `NS(=O)(=O)c1ccc(SCCCO)c([N+](=O)[O-])c1`, the melting point was 163 °C.
For `CCCCCCCCCCCCCCCCCCCCCCCCCCCCCCCCCCCCCCCC`, the melting point was 82 °C and the ready biodegradability was “readily biodegradable”.
Compound `CCNCC(O)c1cccc(O)c1` (stereo not drawn) has a melting point of 148 °C.
Work on `CC/C=C\C(C)(C)C` yielded a melting point of -137 °C.
In the case of `O=C(Cl)c1cccc(C(F)(F)F)c1`, the boiling point is reported as 187 °C.
With `O=CC=O` the boiling point was 50.4 °C, the log10 Henry constant (atm·m³/mol) was -8.48 and the log10 vapour pressure (mmHg) was 2.41. The melting point was 15 °C and the ready biodegradability was “readily biodegradable”.
`CC1=CCC(C(C)C)=CC1` gave a boiling point of 183 °C, a log10 Henry constant (atm·m³/mol) of -1.59 and a log10 vapour pressure (mmHg) of 0.0362. For the same compound, the melting point was -10 °C and the ready biodegradability was “readily biodegradable”.
`CCCNCC` showed a boiling point of 81 °C.
With `N#CCCOc1cccc2ccccc12` the melting point was 64 °C.
With `Oc1c(Br)c(Br)c(O)c(Br)c1Br` the melting point was 244 °C.
In the case of `Cc1cccc2ccc3ccccc3c12`, the melting point is reported as 53.5 °C.
With `ICCCI` the melting point was -20 °C.
`C[C@@H](CN1CC(=O)NC(=O)C1)N1CC(=O)NC(=O)C1` gave a melting point of 238 °C.
For `Cc1ccc(-c2nc3ccc(C)cn3c2CC(=O)N(C)C)cc1`, the melting point was 196 °C.
With `CC(CCc1ccccc1)NC(C)C(O)c1ccc(O)cc1` (stereo not drawn) the melting point was 112 °C.
Work on `CC1=CCC2CC1C2(C)C` (racemic) yielded a boiling point of 156 °C and a melting point of -60.5 °C.
`CCCCCCCOC=O` showed a boiling point of 178 °C.
For `N#CCCCCl`, the boiling point was 192 °C.
With `O=C1c2ccccc2C(=O)c2c1cc(S(=O)(=O)[O][Na])c(O)c2O` the ready biodegradability was “not readily biodegradable”.
`CC(C)OC(=O)c1ccccc1O` showed a boiling point of 238 °C.
`O=C(O)Cc1c[nH]c2ccccc12` showed a melting point of 168 °C.
In the case of `CCCCOc1ccc(O)cc1`, the melting point is reported as 65.5 °C.
For `Cc1ccc2[nH]c(C)c(C)c2c1`, the boiling point was 297 °C and the melting point was 122 °C.
With `CC1(C)CCC(C)(C)C1` the boiling point was 118 °C and the melting point was -88.4 °C.
In the case of `C=C[C@H]1C[N@@]2CC[C@H]1C[C@H]2[C@H](O)c1ccnc2ccc(O)cc12`, the melting point is reported as 202 °C.
Work on `CCCCOc1ccc(CC(=O)NO)cc1` yielded a melting point of 154 °C.
Compound `Cc1ncccn1` has a boiling point of 138 °C and a melting point of -4 °C.
`Nc1ccc(S(=O)(=O)Nc2nccs2)cc1` showed a melting point of 189 °C.
With `CC(=O)OCC(=O)[C@H]1CC[C@H]2[C@@H]3CC[C@H]4C[C@H](O)CC[C@]4(C)[C@H]3C(=O)C[C@]12C` the melting point was 176 °C.
In the case of `Clc1nc(Cl)nc(Nc2ccccc2Cl)n1`, the log10 Koc (L/kg) is reported as 3, the log10 vapour pressure (mmHg) is reported as -8.21 and the melting point is reported as 160 °C.
`NCCCN1CCOCC1` gave a boiling point of 220 °C and a melting point of -15 °C.
With `COP(=O)(OC)OC(=CCl)c1cc(Cl)c(Cl)cc1Cl` the log10 Koc (L/kg) was 3.01, the log10 vapour pressure (mmHg) was -7.38 and the melting point was 96.3 °C. For the same compound, the ready biodegradability was “not readily biodegradable”.
`O=C1CC(C(=O)O)=CO1` gave a melting point of 164 °C.

Same assay, conditions: fish
With `CC(C)(c1ccc(O)cc1)c1ccc(O)cc1` the log10 BCF was 1.64 and the log10 biotransformation half-life (days) was 0.27.
`N#CNC(=N)N` gave a log10 BCF of 0.49.
With `CCCCN(CCCC)CCCC` the log10 BCF was 1.4.
Compound `Clc1ccc(-c2cc(Cl)c(Cl)c(Cl)c2Cl)cc1Cl` has a log10 biotransformation half-life (days) of 2.73.
`C=C(C)c1ccc(Cl)cc1` gave a log10 BCF of 2.84 and a log10 biotransformation half-life (days) of 1.3.
With `Oc1ccc(Br)cc1` the log10 BCF was 1.17.
`Clc1ccc(Oc2ccc(Cl)cc2Cl)c(Cl)c1` gave a log10 biotransformation half-life (days) of 2.28.
`COP(=O)(OC)OC(=CCl)c1cc(Cl)c(Cl)cc1Cl` showed a log10 BCF of 1.61 and a log10 biotransformation half-life (days) of -1.02.
